Test results as given in patent publication US8952024B2, “Herbicidal pyrimidone derivatives” (E I du Pont de Nemours and Company, priority 2009, dated 2015).

Tests used:
Test in all cases: Test B pre-/postemergence plant response
Format in all cases: in vivo
[1] = system: yellow nutsedge (Cyperus esculentus)
How it was run: (§1)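 Plants treated either at seeding (loam/sand soil) or postemergence at 2 to 18 cm height, using a surfactant-containing non-phytotoxic solvent formulation. Evaluation was visual after 13 to 15 days, 0 to 100 scale relative to controls.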

[2] = system: woolly cupgrass (Eriochloa villosa)
How it was run: as §1

wild oat (Avena fatua) = system: wild oat (Avena fatua)
How it was run: as §1

corn (Zea mays) = system: corn (Zea mays)
How it was run: as §1

kochia (Kochia scoparia) = system: kochia (Kochia scoparia)
How it was run: as §1

[3] = system: johnsongrass (Sorghum halepense)
How it was run: as §1

soybean (Glycine max) = system: soybean (Glycine max)
How it was run: as §1

[4] = system: goosegrass (Eleusine indica)
How it was run: as §1

[5] = system: velvetleaf (Abutilon theophrasti)
How it was run: as §1

[6] = system: blackgrass (Alopecurus myosuroides)
How it was run: as §1

[7] = system: Surinam grass (Brachiaria decumbens)
How it was run: as §1

[8] = system: downy bromegrass (Bromus tectorum)
How it was run: as §1

[9] = system: pigweed (Amaranthus retroflexus)
How it was run: as §1

[10] = system: morningglory (Ipomoea coccinea)
How it was run: as §1

[11] = system: green foxtail (Setaria viridis)
How it was run: as §1

[12] = system: large crabgrass (Digitaria sanguinalis)
How it was run: as §1

[13] = system: lambsquarters (Chenopodium album)
How it was run: as §1

[14] = 31 g ai/ha, postemergence, scale 0 to 100, 0 is no effect, 100 is complete control
[15] = 250 g ai/ha, Preemergence, 0 to 100 scale
[16] = Postemergence, 62 g ai/ha, scale 0 (no effect) to 100 (complete control), 13 to 15 days
[17] = Postemergence, 125 g ai/ha, visual rating after 13 to 15 days, scale 0 (no effect) to 100 (complete control)
[18] = Postemergence, 250 g ai/ha, scale 0 to 100 (0 no effect, 100 complete control)
[19] = Preemergence, 31 g ai/ha, scale 0 to 100 (0 no effect, 100 complete control)
[20] = Preemergence, 125 g ai/ha, 0 to 100 scale
[21] = Preemergence, 62 g ai/ha, scale 0 to 100, 0 no effect, 100 complete control

Structure (SMILES): CCCn1c(-c2ccccc2)ncc(C(=O)C2=C(O)CCCC2=O)c1=O [Compound 50]
- Plant response rating, Nutsedge, Yellow [1, 14]: 70
- Plant response rating, Nutsedge, Yellow [1, 15]: 90
- Plant response rating, Nutsedge, Yellow [1, 16]: 70
- Plant response rating, Nutsedge, Yellow [1, 17]: 70
- Plant response rating, Nutsedge, Yellow [1, 18]: 75
- Plant response rating, Nutsedge, Yellow [1, 19]: 80
- Nutsedge, Yellow plant response rating [1, 20]: 90
- Plant response rating, Cupgrass, Woolly [2, 14]: 70
- Plant response rating, Cupgrass, Woolly [2, 15]: 70
- Plant response rating, Cupgrass, Woolly [2, 16]: 75
- Plant response rating, Cupgrass, Woolly [2, 17]: 80
- Plant response rating, Cupgrass, Woolly [2, 18]: 85
- Plant response rating, Cupgrass, Woolly [2, 19]: 0
- Plant response rating, Cupgrass, Woolly [2, 21]: 5
- Cupgrass, Woolly plant response rating [2, 20]: 15
- Plant response rating, Oat, Wild (wild oat (Avena fatua); [14]): 5
- Plant response rating, Oat, Wild (wild oat (Avena fatua); [15]): 0
- Plant response rating, Oat, Wild (wild oat (Avena fatua); [16]): 5
- Plant response rating, Oat, Wild (wild oat (Avena fatua); [17]): 10
- Plant response rating, Oat, Wild (wild oat (Avena fatua); [18]): 30
- Plant response rating, Oat, Wild (wild oat (Avena fatua); [19]): 0
- Oat, Wild plant response rating (wild oat (Avena fatua); [20]): 0
- Plant response rating, Corn (corn (Zea mays); [14]): 5
- Plant response rating, Corn (corn (Zea mays); [15]): 0
- Plant response rating, Corn (corn (Zea mays); [16]): 10
- Plant response rating, Corn (corn (Zea mays); [17]): 25
- Plant response rating, Corn (corn (Zea mays); [18]): 25
- Plant response rating, Corn (corn (Zea mays); [19]): 0
- Plant response rating, Corn (corn (Zea mays); [21]): 0
- Corn plant response rating (corn (Zea mays); [20]): 0
- Plant response rating, Kochia (kochia (Kochia scoparia); [14]): 95
- Plant response rating, Kochia (kochia (Kochia scoparia); [16]): 100
- Plant response rating, Kochia (kochia (Kochia scoparia); [17]): 100
- Plant response rating, Kochia (kochia (Kochia scoparia); [18]): 100
- Plant response rating, Johnsongrass [3, 14]: 0
- Plant response rating, Johnsongrass [3, 15]: 95
- Plant response rating, Johnsongrass [3, 16]: 10
- Plant response rating, Johnsongrass [3, 17]: 65
- Plant response rating, Johnsongrass [3, 18]: 70
- Plant response rating, Johnsongrass [3, 19]: 0
- Plant response rating, Johnsongrass [3, 21]: 20
- Johnsongrass plant response rating [3, 20]: 90
- Plant response rating, Soybean (soybean (Glycine max); [14]): 85
- Plant response rating, Soybean (soybean (Glycine max); [15]): 0
- Plant response rating, Soybean (soybean (Glycine max); [16]): 85
- Plant response rating, Soybean (soybean (Glycine max); [17]): 95
- Plant response rating, Soybean (soybean (Glycine max); [18]): 95
- Plant response rating, Soybean (soybean (Glycine max); [19]): 0
- Plant response rating, Goosegrass [4, 14]: 75
- Plant response rating, Goosegrass [4, 15]: 100
- Plant response rating, Goosegrass [4, 16]: 80
- Plant response rating, Goosegrass [4, 17]: 90
- Plant response rating, Goosegrass [4, 18]: 90
- Plant response rating, Goosegrass [4, 19]: 95
- Goosegrass plant response rating [4, 20]: 100
- Plant response rating, Velvetleaf [5, 14]: 90
- Plant response rating, Velvetleaf [5, 15]: 100
- Plant response rating, Velvetleaf [5, 16]: 98
- Plant response rating, Velvetleaf [5, 17]: 98
- Plant response rating, Velvetleaf [5, 18]: 100
- Plant response rating, Velvetleaf [5, 19]: 85
- Velvetleaf plant response rating [5, 20]: 100
- Plant response rating, Blackgrass [6, 14]: 5
- Plant response rating, Blackgrass [6, 15]: 5
- Plant response rating, Blackgrass [6, 16]: 5
- Plant response rating, Blackgrass [6, 17]: 5
- Plant response rating, Blackgrass [6, 18]: 15
- Plant response rating, Blackgrass [6, 19]: 0
- Plant response rating, Blackgrass [6, 21]: 0
- Blackgrass plant response rating [6, 20]: 0
- Plant response rating, Surinam Grass [7, 14]: 65
- Plant response rating, Surinam Grass [7, 15]: 100
- Plant response rating, Surinam Grass [7, 16]: 75
- Plant response rating, Surinam Grass [7, 17]: 80
- Plant response rating, Surinam Grass [7, 18]: 85
- Plant response rating, Surinam Grass [7, 19]: 75
- Surinam Grass plant response rating [7, 20]: 98
- Plant response rating, Bromegrass, Downy [8, 14]: 0
- Plant response rating, Bromegrass, Downy [8, 15]: 0
- Plant response rating, Bromegrass, Downy [8, 16]: 5
- Plant response rating, Bromegrass, Downy [8, 17]: 20
- Plant response rating, Bromegrass, Downy [8, 18]: 20
- Plant response rating, Bromegrass, Downy [8, 19]: 0
- Plant response rating, Bromegrass, Downy [8, 21]: 0
- Bromegrass, Downy plant response rating [8, 20]: 0
- Plant response rating, Pigweed [9, 14]: 80
- Plant response rating, Pigweed [9, 15]: 100
- Plant response rating, Pigweed [9, 16]: 98
- Plant response rating, Pigweed [9, 17]: 100
- Plant response rating, Pigweed [9, 18]: 100
- Plant response rating, Pigweed [9, 19]: 90
- Pigweed plant response rating [9, 20]: 100
- Plant response rating, Morningglory [10, 14]: 10
- Plant response rating, Morningglory [10, 15]: 55
- Plant response rating, Morningglory [10, 16]: 25
- Plant response rating, Morningglory [10, 17]: 70
- Plant response rating, Morningglory [10, 18]: 80
- Plant response rating, Morningglory [10, 19]: 0
- Plant response rating, Morningglory [10, 21]: 0
- Plant response rating, Foxtail, Green [11, 14]: 80
- Plant response rating, Foxtail, Green [11, 15]: 100
- Plant response rating, Foxtail, Green [11, 16]: 80
- Plant response rating, Foxtail, Green [11, 17]: 95
- Plant response rating, Foxtail, Green [11, 18]: 95
- Plant response rating, Foxtail, Green [11, 19]: 50
- Plant response rating, Foxtail, Green [11, 21]: 50
- Foxtail, Green plant response rating [11, 20]: 95
- Plant response rating, Crabgrass, Large [12, 14]: 75
- Plant response rating, Crabgrass, Large [12, 15]: 100
- Plant response rating, Crabgrass, Large [12, 16]: 85
- Plant response rating, Crabgrass, Large [12, 17]: 95
- Plant response rating, Crabgrass, Large [12, 18]: 98
- Plant response rating, Crabgrass, Large [12, 19]: 98
- Plant response rating, Crabgrass, Large [12, 21]: 100
- Crabgrass, Large plant response rating [12, 20]: 100
- Plant response rating, Lambsquarters [13, 14]: 98
- Plant response rating, Lambsquarters [13, 15]: 100
- Plant response rating, Lambsquarters [13, 16]: 98
- Plant response rating, Lambsquarters [13, 17]: 100
- Plant response rating, Lambsquarters [13, 18]: 100
- Plant response rating, Lambsquarters [13, 19]: 100
- Plant response rating, Lambsquarters [13, 21]: 100
- Lambsquarters plant response rating [13, 20]: 100
